In brackets after ≈: the same amount, converted by molar mass.
Legend:
mouse spleen cell = assay: cells; assay type: cell-based; settings: Mus musculus, 24 h, read-out: Interferon-inducing activity: Minimum effective concentration
Balb/c male mouse = assay: Interferon-inducing activity in mouse (in vivo), serum interferon titer after oral dosing
[1] = Solubility in citric acid/disodium phosphate buffers; settings: for solubility at 30 min: thermodynamic from solid
Method: 5.53% citric acid (monohydrate) and 1.75% disodium phosphate (anhydrous) were mixed together to prepare buffers (pH 2.5, 5.5, 7.4). A compound was added thereto, the mixture was stirred in a vortex mixer and subjected to ultrasonication for 30 minutes. Thereafter, the resultant was stirred in a vortex mixer again and then centrifuged at 15,000 rpm for 20 minutes. The levels of the compounds in the supernatants were then quantified by HPLC.

IL-5 production = assay: Inhibitory activity against Th2 cytokine produced from sensitized spleen cells: IL-5; assay type: cell-based, mouse; settings: Mus musculus, 72 h, read-out: Inhibitory activity against IL-5 production
Method: (§1) A 7-week-old BALB/c mouse was immunized intraperitoneally with aluminum hydroxide gel (4 mg, 100 μl) having 10 μg of ovalbumin adsorbed thereon, and it was subjected to additional immunization with the same agent 14 days later. Seven days thereafter, spleen was taken out, and suspended in RPMI-1640 comprising inactivated fetal bovine serum (10%), 2-mercaptoethanol ([…]), penicillin G (100 U/ml), and streptomycin (100 μg/ml). Thus, a splenic cell suspension was prepared. Ovalbumin (0.5 mg/ml) and a test compound were added to a splenic cell suspension (5×10^6 cell/200 μl/well), and the resultant was cultured at 37° C. in the presence of 5% CO2 for 3 days. The cytokine level in the culture supernatant was quantified by ELISA. IFN-γ and IL-4 were assayed using a kit available from Amersham, and IL-5 was assayed using a kit available from Endogen.

IL-4 production = assay: Inhibitory activity against Th2 cytokine produced from sensitized spleen cells: IL-4; assay type: cell-based, mouse; settings: Mus musculus, 72 h, read-out: Inhibitory activity against IL-4 production
Method: as §1

[2] = citric acid/disodium phosphate buffer, pH 2.5, aqueous buffer
[3] = citric acid/disodium phosphate buffer, pH 5.5, aqueous buffer
[4] = citric acid/disodium phosphate buffer, pH 7.4, aqueous buffer
[5] = dosage 0.1 mg/kg oral, serum 2 h after dosing, Balb/c mouse
[6] = dosage 0.3 mg/kg oral, serum 2 h after dosing, Balb/c mouse

SMILES | minimal effective concentration (mouse spleen cell) [µM] | Interferon-inducing activity (Balb/c male mouse; po, 0.1 mg/kg, 2 h) [U/ml] | Interferon-inducing activity (Balb/c male mouse; po, 0.3 mg/kg, 2 h) [U/ml] | solubility at 30 min [1, 2] [µg/mL] | solubility at 30 min [1, 3] [µg/mL] | solubility at 30 min [1, 4] [µg/mL] | further results
CCCCOc1nc(N)c2nc(O)n(Cc3ccc(OCC)nc3)c2n1 [Example 3, 2-Butoxy-9-(6-ethoxy-3-pyridylmethyl)-8-hydroxyadenine] | 0.001 | 353 ± 73 | 1966 ± 532 | – | – | – | –
CCCCOc1nc(N)c2nc(O)n(Cc3cccnc3Cl)c2n1 [Example 5, 2-Butoxy-9-(2-chloro-3-pyridylmethyl)-8-hydroxyadenine] | 0.003 | 133 ± 33 | 473 ± 9 | – | – | – | –
CCCCOc1nc(N)c2nc(O)n(Cc3ccc(N4CCCC4)nc3)c2n1 [Example 14, 2-Butoxy-9-(6-(1-pyrrolidinyl)-3-pyridylmethyl)-8-hydroxyadenine] | 0.001 | – | 570 ± 63 | – | – | – | –
CCCCOc1nc(N)c2nc(O)n(Cc3ccc(N4CCOCC4)nc3)c2n1 [Example 15, 2-Butoxy-9-(6-morpholino-3-pyridylmethyl)-8-hydroxyadenine] | 0.001 | 52 ± 32 | 603 ± 147 | 140 (≈ 350 µM) | 1 (≈ 2.5 µM) | < 1 | –
CCCCOc1nc(N)c2nc(O)n(Cc3cnc(Cl)c(Cl)c3)c2n1 [Example 11, 2-Butoxy-9-(5,6-dichloro-3-pyridylmethyl)-8-hydroxyadenine] | 0.003 | – | – | – | – | – | Interferon-inducing activity (Balb/c male mouse; [5]): 279 ± 177 U/ml; Interferon-inducing activity (Balb/c male mouse; [6]): 568 ± 160 U/ml
CCCCNc1nc(N)c2nc(O)n(Cc3ccc(Cl)nc3Cl)c2n1 [Example 23, 2-Butylamino-9-(2,6-dichloro-3-pyridylmethyl)-8-hydroxyadenine] | 0.01 | – | – | – | – | – | Interferon-inducing activity (Balb/c male mouse; [5]): 42 ± 7 U/ml; Interferon-inducing activity (Balb/c male mouse; [6]): 414 ± 118 U/ml
CCCCOc1nc(N)c2nc(O)n(Cc3ccc(N4CCCCC4)nc3)c2n1 [Example 13, 2-Butoxy-9-(6-piperidino-3-pyridylmethyl)-8-hydroxyadenine] | 0.003 | – | 304 ± 138 | – | – | – | –
CCCCNc1nc(N)c2nc(O)n(Cc3cccnc3C)c2n1 [Example 28, 2-Butylamino-8-hydroxy-9-(2-methyl-3-pyridylmethyl)adenine] | 0.01 | 186 ± 62 | 1462 ± 260 | > 1000 | 8 (≈ 24.4 µM) | 4 (≈ 12.2 µM) | –
CCCCNc1nc(N)c2nc(O)n(Cc3ccc(N(C)C)nc3)c2n1 [Example 24, 2-Butylamino-9-(6-dimethylamino-3-pyridylmethyl)-8-hydroxyadenine] | 0.003 | – | 403 ± 146 | 27000 (≈ 75800 µM) | 22 (≈ 61.7 µM) | 1 (≈ 2.81 µM) | –
CCCCOc1nc(N)c2nc(O)n(Cc3ccc(Cl)nc3Cl)c2n1 [Example 12, 2-Butoxy-9-(2,6-dichloro-3-pyridylmethyl)-8-hydroxyadenine] | 0.01 | – | – | – | – | – | Interferon-inducing activity (Balb/c male mouse; [6]): 31 ± 5 U/ml
CCCCOc1nc(N)c2nc(O)n(Cc3cnc(Cl)c(OC)c3)c2n1 [Example 7, 2-Butoxy-9-(6-chloro-5-methoxy-3-pyridylmethyl)-8-hydroxyadenine] | 0.001 | – | – | – | – | – | Interferon-inducing activity (Balb/c male mouse; [5]): 347 ± 149 U/ml; Interferon-inducing activity (Balb/c male mouse; [6]): 845 ± 22 U/ml
CCCCOc1nc(N)c2nc(O)n(Cc3cccnc3)c2n1 [Example 8, 2-Butoxy-8-hydroxy-9-(3-pyridylmethyl)adenine] | 0.001 | 725 ± 141 | 936 ± 438 | 784 (≈ 2490 µM) | 20 (≈ 63.6 µM) | 18 (≈ 57.3 µM) | Interferon-inducing activity (Balb/c male mouse; po, 0.01 mg/kg, 2 h): 13 ± 5 U/ml; Interferon-inducing activity (Balb/c male mouse; po, 0.03 mg/kg, 2 h): 167 ± 97 U/ml
CCCCOc1ccc(Cn2c(O)nc3c(N)nc(OCCCC)nc32)cn1 [Example 4, 2-Butoxy-9-(6-n-butoxy-3-pyridylmethyl)-8-hydroxyadenine] | 0.01 | – | – | – | – | – | –
COCCOc1nc(N)c2nc(O)n(Cc3cccnc3)c2n1 [Example 31, 8-Hydroxy-2-(2-methoxy)ethoxy-9-(3-pyridylmethyl)adenine] | – | – | – | – | – | – | Solubility (level of compound in supernatant) ([1]; pH 2.5 buffer): >1,000 μg/ml; Solubility (level of compound in supernatant) ([1]; pH 5.5 buffer): 353 µg/mL; Solubility (level of compound in supernatant) ([1]; pH 7.4 buffer): 322 µg/mL
CCCCOc1nc(N)c2nc(O)n(Cc3ccc(N(C)C)nc3)c2n1 [Example 16, 2-Butoxy-9-(6-dimethylamino-3-pyridylmethyl)-8-hydroxyadenine] | 0.001 | 251 ± 46 | 716 ± 155 | 293 (≈ 820 µM) | – | – | –
CCCCOc1nc(N)c2nc(O)n(Cc3cccnc3C)c2n1 [Example 26, 2-Butoxy-8-hydroxy-9-(2-methyl-3-pyridylmethyl)adenine] | 0.001 | 433 ± 366 | 780 ± 190 | > 1000 | 6 (≈ 18.3 µM) | 3 (≈ 9.14 µM) | Interferon-inducing activity (Balb/c male mouse; po, 0.03 mg/kg, 2 h): 121 ± 11 U/ml
CCCCOc1nc(N)c2nc(O)n(Cc3cccnc3OC)c2n1 [Example 6, 2-Butoxy-8-hydroxy-9-(2-methoxy-3-pyridylmethyl)adenine] | 0.001 | 569 ± 42 | 1222 ± 248 | – | – | – | –
COc1nc(N)c2nc(O)n(Cc3cccnc3)c2n1 [Example 32, 8-Hydroxy-2-methoxy-9-(3-pyridylmethyl)adenine] | – | – | – | > 1000 | 82 (≈ 301 µM) | 25 (≈ 91.8 µM) | –
CCCCNc1nc(N)c2nc(O)n(Cc3cccnc3Cl)c2n1 [Example 18, 2-Butylamino-9-(2-chloro-3-pyridylmethyl)-8-hydroxyadenine] | 0.01 | – | 94 ± 49 | – | – | – | –
CCCCOc1nc(N)c2nc(O)n(Cc3cnccn3)c2n1 [Example 10] | – | – | – | – | – | – | activity at 0.001 µM (IL-5 production): 91%; activity at 0.01 µM (IL-5 production): 32%; activity at 0.1 µM (IL-5 production): 15%; activity at 0.001 µM (IL-4 production): 54%; activity at 0.01 µM (IL-4 production): 3%; activity at 0.1 µM (IL-4 production): < 1%; Interferon-inducing activity (Balb/c male mouse; dosage 0.03 mg/kg oral, serum 2 h after dosing, Balb/c mouse): 89 ± 22 U/ml; Interferon-inducing activity (Balb/c male mouse; [5]): 409 ± 267 U/ml; Interferon-inducing activity (Balb/c male mouse; [6]): 733 ± 256 U/ml; solubility at 30 min ([1]; pH 2.5, aqueous buffer): 34 µg/mL (≈ 108 µM); solubility at 30 min ([1]; pH 5.5, aqueous buffer): 15 µg/mL (≈ 47.6 µM); solubility at 30 min ([1]; pH 7.4, aqueous buffer): 10 µg/mL (≈ 31.7 µM)
CCCCNc1nc(N)c2nc(O)n(Cc3ccc(C)nc3Cl)c2n1 [Example 29, 2-Butylamino-9-(2-chloro-6-methyl-3-pyridylmethyl)-8-hydroxyadenine] | 0.01 | – | – | – | – | – | Interferon-inducing activity (Balb/c male mouse; [6]): 619 ± 268 U/ml
CCCCOc1nc(N)c2nc(O)n(Cc3ccncc3)c2n1 [Example 9, 2-Butoxy-8-hydroxy-9-(4-pyridylmethyl)adenine] | 0.003 | – | 539 ± 107 | 350 (≈ 1110 µM) | 4 (≈ 12.7 µM) | 3 (≈ 9.54 µM) | –
